Target: hTREM2 (Homo sapiens, UniProt Q9NZC2)
Assay: TREM2 activity by cellular Syk phosphorylation (AlphaScreen/AlphaLISA) in TREM2/DAP12-HEK cells, used for Examples 1-305
Format: cell-based
Set-up: expressed in transfected cells
Conditions: HEK293 Cells
Procedure, shortened: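 Phospho-Syk (Tyr525/526) over total Syk quantified by AlphaScreen in lysates of cloned TREM2/DAP12-overexpressing HEK293 cells after 45 min compound treatment at room temperature, 1% final DMSO. Values expressed relative to 100 nM anti-TREM2 antibody (positive) and isotype IgG (negative) controls; curves fitted with 4-parameter logistic model.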

Chain of hTREM2 (Q9NZC2 19-230): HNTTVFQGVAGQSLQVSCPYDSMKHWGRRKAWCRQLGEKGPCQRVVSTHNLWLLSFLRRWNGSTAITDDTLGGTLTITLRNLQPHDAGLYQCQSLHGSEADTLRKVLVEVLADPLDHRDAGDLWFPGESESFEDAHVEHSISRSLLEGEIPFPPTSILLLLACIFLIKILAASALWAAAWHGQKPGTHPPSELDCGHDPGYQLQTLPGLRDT
Chain of hTREM2 (O43914 22-113 partner): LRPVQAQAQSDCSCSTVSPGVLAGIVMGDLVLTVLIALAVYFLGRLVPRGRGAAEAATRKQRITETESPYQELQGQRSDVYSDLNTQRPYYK

SMILES | EC50 | hTREM2 Emax
Cc1nc2nc(N3CCO[C@@H](c4cnn(C)c4)C3)nc(C3CC(F)(F)C3)c2nc1C [Example 146, 4-(3,3-difluorocyclobutyl)-6,7-dimethyl-2-((2S)-2-(1-methyl-1H-pyrazol-4-yl)-4-morpholinyl) pteridine] | 500 to 3000 nM | ++ (Emax>100 and ≤150)
Cc1cnc2c(-c3ccc(Cl)cc3F)nc([C@H]3CCO[C@@H](c4cnc(C)nc4)C3)nc2n1 (single isomer, unassigned) [Example 173] | ≤ 50 nM | +++ (Emax>150 and ≤250)
Cc1nc2nc(N3CCO[C@@H](c4cnn(C)c4)C3)nc(C3=CC[C@@H](C(F)(F)F)CC3)c2nc1C (single isomer, unassigned) [Example 127] | ≤ 50 nM | ++ (Emax>100 and ≤150)
Cc1nc2nc(N3CCO[C@@H](c4cnn(C)c4)C3)nc(C3=CC[C@H](C(F)(F)F)CC3)c2nc1C (single isomer, unassigned) [Example 126] | 50 to 500 nM | + (Emax>45 and ≤100)
Cc1cc2c(OC[C@@H]3C[C@H]3C(F)(F)F)nc(N3CCO[C@@H](c4cnn(C)c4)C3)nc2nc1C [Example 110, 6,7-dimethyl-2-((2S)-2-(1-methyl-1H-pyrazol-4-yl)-4-morpholinyl)-4-(((1R,2R)-2-(trifluoromethyl)cyclopropyl)methoxy)pyrido[2,3-d]pyrimidine] | 500 to 3000 nM | + (Emax>45 and ≤100)
Cc1nc2nc(N3CCO[C@@H](c4cnn(C)c4)C3)nc([C@H]3CC[C@@H](C(F)(F)F)CC3)c2nc1C [Example 131, 6,7-dimethyl-2-((2S)-2-(1-methyl-1H-pyrazol-4-yl)-4-morpholinyl)-4-(cis-4-(trifluoromethyl)cyclohexyl)pteridine] | 50 to 500 nM | +++ (Emax>150 and ≤250)
Cc1nc2nc([C@@H]3CCO[C@H](c4cnn(C)c4)C3)nc(C3CCC(F)(F)CC3)c2nc1C (single isomer, unassigned) [Example 175] | 500 to 3000 nM | ++ (Emax>100 and ≤150)
Cc1nc2nc([C@H]3CCO[C@@H](c4cnn(C)c4)C3)nc(-c3ccc(F)cc3F)c2nc1C (single isomer, unassigned) [Example 182] | ≤ 50 nM | +++ (Emax>150 and ≤250)
Cc1cc([C@H]2CN(c3nc(-c4ccc(F)cc4F)c4ccc(C)nc4n3)CCO2)ccn1 [Example 93, 4-(2,4-difluorophenyl)-7-methyl-2-((2S)-2-(2-methyl-4-pyridinyl)-4-morpholinyl)pyrido[2,3-d]pyrimidine] | ≤ 50 nM | +++ (Emax>150 and ≤250)
Cc1cc([C@H]2CN(c3cc4nc(C)cnc4c(-c4ccc(Cl)cc4F)n3)CCO2)ccn1 [Example 77, 5-(4-chloro-2-fluorophenyl)-2-methyl-7-((2S)-2-(2-methyl-4-pyridinyl)-4-morpholinyl)pyrido[3,4-b]pyrazine] | ≤ 50 nM | +++ (Emax>150 and ≤250)
Cc1nc2nc(N3CCO[C@@H](c4cnn(C)c4)C3)nc([C@H]3C[C@@H](C(F)(F)F)C3)c2nc1C [Example 43, 6,7-dimethyl-2-((2S)-2-(1-methyl-1H-pyrazol-4-yl)-4-morpholinyl)-4-(cis-3-(trifluoromethyl)cyclobutyl)pteridine] | 50 to 500 nM | +++ (Emax>150 and ≤250)
Cc1ccc(-c2nc(N3CCO[C@@H](c4cnn(C5CC5)c4)C3)nc3nc(C)ccc23)c(F)c1 [Example 95, 2-((2S)-2-(1-cyclopropyl-1H-pyrazol-4-yl)-4-morpholinyl)-4-(2-fluoro-4-methylphenyl)-7-methylpyrido[2,3-d]pyrimidine] | ≤ 50 nM | +++ (Emax>150 and ≤250)
Cc1cc2c(-c3ccc(F)cc3F)nc([C@@H]3CCO[C@H](c4cnn(C)c4)C3)nc2nc1C (single isomer, unassigned) [Example 200] | 500 to 3000 nM | +++ (Emax>150 and ≤250)
Cc1cc([C@H]2CN(c3nc(-c4ccc(Cl)cc4F)c4nc(C)c(C)nc4n3)CCO2)ccn1 [Example 23, 4-(4-chloro-2-fluorophenyl)-6,7-dimethyl-2-((2S)-2-(2-methyl-4-pyridinyl)-4-morpholinyl)pteridine] | ≤ 50 nM | ++++ (Emax>250)
Cc1cc([C@H]2CN(c3cc(-c4ccc(Cl)cc4F)c4nc(C)c(C)nc4c3)CCO2)ccn1 [Example 163, 5-(4-chloro-2-fluorophenyl)-2,3-dimethyl-7-((2S)-2-(2-methyl-4-pyridinyl)-4-morpholinyl) quinoxaline] | ≤ 50 nM | ++++ (Emax>250)
Cc1nc2nc(N3CCO[C@@H](c4cnn(C)c4)C3)nc(CCC(F)(F)F)c2nc1C [Example 40, 6,7-dimethyl-2-((2S)-2-(1-methyl-1H-pyrazol-4-yl)-4-morpholinyl)-4-(3,3,3-trifluoropropyl)pteridine] | 50 to 500 nM | + (Emax>45 and ≤100)
Cc1ccc2c(n1)nc(N1CCO[C@@H](c3cnn(C)c3)C1)nc2[C@H]1CC[C@@H](C(F)(F)F)CC1 [Example 142, 7-methyl-2-((2S)-2-(1-methyl-1H-pyrazol-4-yl)-4-morpholinyl)-4-(cis-4-(trifluoromethyl)cyclohexyl)pyrido [2,3-d]pyrimidine] | 3000 to 100000 nM | ++ (Emax>100 and ≤150)
Cc1nc2nc(N3CCO[C@@H](c4cnn(C)c4)C3)nc(C3CCC(F)(F)CC3)c2nc1C [Example 133, 4-(4,4-difluorocyclohexyl)-6,7-dimethyl-2-((2S)-2-(1-methyl-1H-pyrazol-4-yl)-4-morpholinyl)pteridine] | ≤ 50 nM | +++ (Emax>150 and ≤250)
Cc1nc2nc(N3CCO[C@@H](c4cnn(C)c4)C3)nc(-c3ccc(Cl)cc3F)c2cc1Cl [Example 116, 6-chloro-4-(4-chloro-2-fluorophenyl)-7-methyl-2-((2S)-2-(1-methyl-1H-pyrazol-4-yl)-4-morpholinyl)pyrido[2,3-d]pyrimidine] | ≤ 50 nM | +++ (Emax>150 and ≤250)
Cc1ccc(-c2nc([C@H]3CCO[C@@H](c4cnn(C)c4)C3)nc3nc(C)c(C)nc23)c(F)c1 (single isomer, unassigned) [Example 183] | ≤ 50 nM | ++++ (Emax>250)
Cc1nc2nc(N3CCO[C@@H](c4cnn(C)c4)C3)nc(N3CCC[C@H](F)C3)c2nc1C (single isomer, unassigned) [Example 70] | 500 to 3000 nM | + (Emax>45 and ≤100)
Cc1nc2nc([C@@H]3CCO[C@H](c4cnn(C)c4)C3)nc(-c3ccc(Cl)cc3F)c2nc1C (single isomer, unassigned) [Example 177] | 500 to 3000 nM | +++ (Emax>150 and ≤250)

The next lines start with the values.

EC50 | hTREM2 Emax | SMILES
≤ 50 nM | +++ (Emax>150 and ≤250) | Cc1cc([C@@H]2C[C@@H](c3nc(-c4ccc(F)cc4F)c4cc(C)c(C)nc4n3)CCO2)ccn1 (single isomer, unassigned) [Example 227]
3000 to 100000 nM | + (Emax>45 and ≤100) | Cn1cc([C@H]2CN(c3cc4ccccc4c(-c4ccc(Cl)cc4F)n3)CCO2)cn1 [Example 235, (S)-4-(1-(4-chloro-2-fluorophenyl)isoquinolin-3-yl)-2-(1-methyl-1H-pyrazol-4-yl)morpholine]
50 to 500 nM | +++ (Emax>150 and ≤250) | Cc1cc2c(-c3ccc(Cl)cc3F)nc([C@@H]3CCO[C@H](c4cnn(C)c4)C3)nc2nc1C (single isomer, unassigned) [Example 226]
50 to 500 nM | +++ (Emax>150 and ≤250) | Cc1nc2nc(N3CC[C@H](C(F)F)C3)nc(-c3ccc(Cl)cc3F)c2nc1C [Example 247, (S)-4-(4-chloro-2-fluorophenyl)-2-(3-(difluoromethyl)pyrrolidin-1-yl)-6,7-dimethylpteridine]
500 to 3000 nM | +++ (Emax>150 and ≤250) | Cn1cc([C@H]2CN(c3cc4ncccc4c(-c4ccc(Cl)cc4F)n3)CCO2)cn1 [Example 234, (S)-4-(5-(4-chloro-2-fluorophenyl)-1,6-naphthyridin-7-yl)-2-(1-methyl-1H-pyrazol-4-yl)morpholine]
500 to 3000 nM | +++ (Emax>150 and ≤250) | Cc1nc2nc(N3CCO[C@@H](c4cnn(C)c4)C3)nc(-c3ccc(F)cn3)c2nc1C [Example 292, (S)-4-(4-(5-fluoropyridin-2-yl)-6,7-dimethylpteridin-2-yl)-2-(1-methyl-1H-pyrazol-4-yl)morpholine]
≤ 50 nM | +++ (Emax>150 and ≤250) | Cc1nc2nc([C@H]3C[C@@H](C)O[C@@H](c4cnn(C)c4)C3)nc(-c3ccc(Cl)cc3F)c2nc1C (single isomer, unassigned) [Example 216]
3000 to 100000 nM | +++ (Emax>150 and ≤250) | Cn1cc([C@H]2CN(c3cc4nccnc4c(-c4ccc(Cl)cc4F)n3)CCO2)cn1 [Example 233, (S)-4-(5-(4-chloro-2-fluorophenyl)pyrido[3,4-b]pyrazin-7-yl)-2-(1-methyl-1H-pyrazol-4-yl)morpholine]
≤ 50 nM | +++ (Emax>150 and ≤250) | Cc1ccc(-c2nc([C@H]3CCO[C@@H](c4cnn(C)c4)C3)nc3nc(C)c(C)cc23)c(F)c1 (single isomer, unassigned) [Example 203]
500 to 3000 nM | ++ (Emax>100 and ≤150) | Cc1nc2cc([C@@H]3CCO[C@H](c4cnn(C)c4)C3)nc(-c3ccc(F)cc3F)c2nc1C [Example 257, 5-(2,4-difluorophenyl)-2,3-dimethyl-7-((2S,4R)-2-(1-methyl-1H-pyrazol-4-yl)tetrahydro-2H-pyran-4-yl)pyrido[3,4-b]pyrazine]
3000 to 100000 nM | + (Emax>45 and ≤100) | Cc1ccc2c(n1)nc(N1CCO[C@@H](c3cnn(C)c3)C1)nc2[C@H]1C[C@@H](C(F)(F)F)C1 [Example 275, (S)-2-(1-methyl-1H-pyrazol-4-yl)-4-(7-methyl-4-((1s,3R)-3-(trifluoromethyl)cyclobutyl)pyrido[2,3-d]pyrimidin-2-yl)morpholine]

Source: US11884675B2, “Heterocyclic compounds as triggering receptor expressed on myeloid cells 2 agonists and methods of use” (AMGEN INC., priority 2020, dated 2024)
